Data: US20090029943A1, “Glucosamine and Derivatives Thereof Useful as TG Inhibitors” (priority 2005, published 2009)
“Also recorded” adds a separate entry of the source.

Legend:
[1] = tested on: iNOS (NF-kB-inducible) in LPS-activated BV2 microglia; assay: iNOS Western blotting in LPS-activated BV2 microglia cells; format: cell-based, murine; conditions: LPS 100 ng/ml 24 hrs; glucosamine 1, 10 or 100 mM; FIG. 3A
Procedure: The inhibitory effects of glucosamine on transglutaminase were determined by monitoring the activity of the transcriptional factor NF-kB through the measurement of level of NF-kB-inducible iNOS.
The cells were maintained in DMEM (Dulbecco's Modified Eagle's medium) (Invitrogen) supplemented with 10% fetal bovine serum and penicillin/streptomycin in a 5% CO2, 37° C. incubator. BV-2 was activated by treatment with LPS (100 ng/ml; Sigma) for 24 hrs.
In order to detect the intracellular activity of transglutaminase, the cells were incubated for 24 hrs in a medium supplemented with 4.5 nmoles of ^14C-putrescine (1.11×10^6 dpm)/ml. Cells were grouped according to treatment without or with 1, 10 or 100 mM of glucosamine. Following LPS treatment for 24 hrs, cells in each group were homogenized with a radioimmunoprecipitation assay buffer (1×PBS, 1% Nonidet P-40, 0.5% sodium deoxycholate and 0.1% SDS) containing a protease inhibitor. The homogenates were centrifuged at 100,000×g for 1 hr. and the supernatants were subjected to iNOS Western blotting.
After being separated from a 10˜20% gradient SDS gel using Tricine buffer (Invitrogen), the Western blotting samples were transferred onto polyvinylidene difluoride membrane (Invitrogen). Western blotting was conducted as usual. […]

[2] = molecular target: T1, transglutaminase in LPS-activated microglia cells (Mus musculus, UniProt P21981); assay: Intracellular transglutaminase activity in LPS-activated BV2 microglia (14C-putrescine incorporation); format: cell-based, murine; conditions: LPS 24 hrs; glucosamine 1, 10 or 100 mM; FIG. 3B
T1 construct: In order to detect the intracellular activity of transglutaminase, the cells were incubated for 24 hrs; endogenous in cells
T1 sequence (P21981 1-686): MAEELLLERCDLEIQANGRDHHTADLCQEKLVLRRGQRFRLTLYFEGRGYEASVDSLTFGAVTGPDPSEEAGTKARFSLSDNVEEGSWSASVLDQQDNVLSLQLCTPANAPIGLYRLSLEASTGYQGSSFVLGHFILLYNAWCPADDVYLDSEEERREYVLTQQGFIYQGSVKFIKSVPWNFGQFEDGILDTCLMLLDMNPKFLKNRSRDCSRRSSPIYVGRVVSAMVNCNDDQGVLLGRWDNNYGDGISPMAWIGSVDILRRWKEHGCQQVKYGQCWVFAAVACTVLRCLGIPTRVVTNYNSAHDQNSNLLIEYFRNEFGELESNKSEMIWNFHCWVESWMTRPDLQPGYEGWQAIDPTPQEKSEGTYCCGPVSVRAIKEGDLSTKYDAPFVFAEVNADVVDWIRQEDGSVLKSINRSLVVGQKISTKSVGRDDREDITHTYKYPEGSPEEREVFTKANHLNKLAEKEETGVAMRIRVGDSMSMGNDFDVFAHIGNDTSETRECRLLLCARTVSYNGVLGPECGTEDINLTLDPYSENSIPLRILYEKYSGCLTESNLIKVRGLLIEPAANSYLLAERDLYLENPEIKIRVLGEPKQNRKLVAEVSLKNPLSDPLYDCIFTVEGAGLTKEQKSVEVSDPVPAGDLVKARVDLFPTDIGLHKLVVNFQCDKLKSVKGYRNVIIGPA

[3] = tested on: transglutaminase in SH-SY5Y/TG cells (I-κBα level); assay: I-κBα Western blotting in SH-SY5Y/TG neuroblastoma cells; format: cell-based, human; conditions: 10 mM glucosamine, 3 hrs, cytosol fraction; FIG. 4A
Procedure: For use in the transfection of transglutaminase, the human neuroblastoma cell SH-SY5Y was purchased from American Type Culture Collection. SH-SY5Y was cultured in DMEM (Dulbecco's modified Eagle's Medium)/Ham F12 medium (50:50) supplemented with 10% heat-inactivated fetal bovine serum, glutamine, and penicillin/streptomycin. In order to avoid clonal mutation, an Flp-In™ system (Invitrogen, Co) was introduced. SH-SY5Y transformed with a mock vector was used as a […] (Wild) while a full-length transglutaminase gene was cloned in a pcDNA5/FRT vector to prepare SH-SY5Y/TG. Allowing NF-kB to be usually active therein (J. Biol. Chem. 279, 53725-53735, 2004), the strain thus constructed is widely used as an NF-kB activation model based on the overexpression of transglutaminase. […] The inhibitory effects of putative transglutaminase inhibitors were investigated by incubating SH-SY5Y/TG cells in the presence of 10 mM glucosamine (GM), 200 μM cystamine (CTM), and 2 nM iodoacetamide (IAA) for 3 hrs, followed by obtaining cytosol fractions with the aid of a nuclear extraction kit (Sigma) from the cells. As a negative control, a cytosol fraction obtained from a cell culture incubated in the absence of any transglutaminase inhibitor was used (Ct). […]

[4] = molecular target: T2, purified transglutaminase enzyme (Sigma T5398) (UniProt P08587); assay: In vitro assay for inhibition of transglutaminase activity (14C-putrescine incorporation into succinylated casein); format: biochemical; conditions: glucosamine 1, or 100 mM; 37° C., 1 hour; FIG. 2
T2 construct: purchased Sigma T5398
T2 sequence (P08587 1-690): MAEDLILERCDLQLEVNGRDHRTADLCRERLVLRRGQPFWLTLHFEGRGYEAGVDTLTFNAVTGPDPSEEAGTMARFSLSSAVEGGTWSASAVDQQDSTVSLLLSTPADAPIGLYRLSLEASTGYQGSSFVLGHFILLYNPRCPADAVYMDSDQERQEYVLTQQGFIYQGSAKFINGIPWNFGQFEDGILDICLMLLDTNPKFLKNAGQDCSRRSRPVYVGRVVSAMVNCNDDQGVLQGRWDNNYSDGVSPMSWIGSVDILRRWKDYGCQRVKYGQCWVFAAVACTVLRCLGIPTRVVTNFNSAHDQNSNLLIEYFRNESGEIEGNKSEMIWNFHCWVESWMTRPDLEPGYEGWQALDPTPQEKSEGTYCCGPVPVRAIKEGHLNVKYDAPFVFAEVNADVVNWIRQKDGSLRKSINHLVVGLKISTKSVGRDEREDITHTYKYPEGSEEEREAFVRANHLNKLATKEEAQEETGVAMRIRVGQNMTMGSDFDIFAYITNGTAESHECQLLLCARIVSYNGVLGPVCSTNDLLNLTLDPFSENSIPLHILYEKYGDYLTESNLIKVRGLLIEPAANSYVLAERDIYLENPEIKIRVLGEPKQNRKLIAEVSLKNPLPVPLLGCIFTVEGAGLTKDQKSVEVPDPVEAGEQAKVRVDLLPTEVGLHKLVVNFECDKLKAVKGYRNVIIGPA
Procedure: Consequently, glucosamine and derivatives thereof are transglutaminase inhibitors.
In the presence of various concentrations of […], which competes with putrescine, the reaction between [1,4-^14C] putrescine and succinylated casein, catalyzed by transglutaminase, was observed.
A reaction buffer (0.5 ml) was prepared as follows: 0.1 M triacetate pH 7.5, 1% succinylated casein, 1 mM EDTA, 10 mM CaCl2, 0.5% lubrol PX, 5 mM DTT, 0.15 M NaCl and 0.5 mCi [1,4-^14C] putrescine (Dupont-New England Nuclear; 118 Ci/mole). To this reaction buffer were added 2 μl of a purified transglutaminase enzyme (Sigma T5398), glucosamine and a 50 mM Tris-acetate buffer so as to yield a final volume of 100 μl, having a glucosamine concentration of 1, or 100 mM. Mixing was followed by reaction at 37° C. for 1 hour before termination with 4.5 ml of cold (4° C.) 7.5% TCA. The TCA-precipitates thus formed were filtered through a GF/glass fiber filter, washed with 10 volumes of 5% TCA and dried, followed by measuring transglutaminase-catalyzed ^14C-putrescine-labelled casein with a β-counter.
The relative inhibition activities (%) of glucosamine against transglutaminase are depicted in FIG. 2.

N[C@H]1C(O)O[C@H](CO)[C@@H](O)[C@@H]1O (stereo partly shown) [glucosamine]
level of expression of iNOS [1]: reduces the level of expression of iNOS
activity of transglutaminase in LPS-activated microglia [2]: inhibited in a glucosamine dose-dependent manner
transglutaminase inhibition shown by level of expression of I-κBα [3]: identified as a transglutaminase inhibitor
activity of transglutaminase (relative inhibition activity) [4]: poorer activity of transglutaminase; also recorded: inhibited in a glucosamine dose-dependent manner
